Test results from US20200038393A1, “APOMORPHINE PLUS BUSPIRONE COMBINATION FOR MEMORY REVIVAL” (priority 2018, published 2020).

Experiments:
[1] = Exploratory activity in novel environment of an open field; type: in vivo; conditions: rats
Protocol: Open field consisted of a square area (76×76 cm) with walls 42 cm high. Floor of the apparatus was divided by lines into 25 squares of equal size. Experiment was conducted in a quiet room under white light. Animals were tested 24 hr post 1st and 6th apomorphine injection. Numbers of squares crossed with all four paws and latency to move from the central square were scored for 5 min.

[2] = Motor behavior (cage crossings) and % psychosis like effects during conditioning phase; type: in vivo; conditions: rats
Protocol: (§1) This phase started one day after pre-conditioning phase, animals were randomly assigned to six groups, each containing six animals: (i) buspirone (0 mg/kg)-saline, (ii) buspirone (0 mg/kg)-[…], (iii) buspirone (1 mg/kg)-saline, (iv) buspirone (1 mg/kg)-apomorphine, (v) buspirone (2 mg/kg)-saline and (vi) buspirone (2 mg/kg)-apomorphine injected animals. Over next 12 days (day 1 to day 12) animals went through conditioning (one session per day) in which they were confined to either the horizontal or vertical stripe compartment by raising the respective guillotine door. On day 1, 3, 5, 7, 9 and 11 animals of all groups were injected with saline (1 ml/kg) and placed immediately in the assigned ‘Non-Drug paired’ compartment for 30 min. After which the animals were kept back in their home cages. On every other day, i.e. day 2, 4, 6, 8, 10, and 12 control and test animals were injected with saline, buspirone and/or apomorphine as assigned above. Immediately after injections, animals were placed in the ‘Drug paired’ compartment for 30 min. The animals picked from the drug paired compartment were placed back in their home cages.
Motor behavior was also monitored during conditioning phase. Animals confined to a compartment were moving across the compartment. Activity scores were counted as number of cage crossings for 10 min starting 5 min post injection.

[3] = Morris water maze test (learning acquisition, memory consolidation, retention); type: in vivo, rats
Protocol: The Morris water maze test was conducted after repetitive apomorphine injections and post-conditioning. Water temperature was at room temperature, 21±1° C. The platform (10 cm×10 cm) was made of clear acrylic and was hidden 2 cm below the surface of water in a fixed location. Water was made opaque by adding milk to it.
During training phase, each rat was placed into the water facing the wall of the tank and allowed 120 sec to locate and climb onto the submerged platform. The rat was allowed to stay on the platform for 10 sec. […] After the training animals were tested three times.
Each rat was tested immediately after training. Learning acquisition was determined by recording the initial latency (IL; the time taken by each rat to relocate the hidden platform).
Rats were tested for memory consolidation 60 min post training. It was determined by recording the retention latency (RL; the time taken by each rat to locate the hidden platform 1 h after training). The cut off time for each session was 2 min.
Rats were tested for memory retention 24 hr post training session. Memory retention was determined by recording the retention latency (RL; the time taken by each rat to locate the hidden platform 24 hr post training). The cut off time for each session was 2 min.

[4] = Conditioned place preference (CPP) test for addictive/reinforcing effects; type: in vivo, rats
Description: Apparatus for Conditioned Place Preference
A three compartment conditioned place preference (CPP) apparatus with an unbiased design was used to monitor drug-induced reinforcement. The apparatus was made up of transparent plastic Perspex. The compartments were separated by sliding guillotine doors.
The end (preference) compartments (26×26×26 cm each) provided distinct contexts, with one compartment having black horizontal stripes on side walls, the other compartment had vertical black stripes. […] The experiment was conducted in three distinct phases: pre-conditioning, conditioning and post-conditioning.
An animal introduced in the CPP apparatus from the middle compartment and guillotine doors were raised to open. The animal was allowed to explore the entire apparatus for 10 min. Time spent in each compartment was recorded.
as §1
The test was carried out on day 13, 24 hr post last conditioning session, in a drug free state. Each animal was tested only once. As in the pre-conditioning phase, the guillotine doors were removed and rat was given access to the entire apparatus for 10 min. Time spent in ‘Drug paired’ compartment was monitored.

[5] = buspirone 1 mg/kg co-treated with apomorphine 1 mg/kg
[6] = buspirone 1 mg/kg with apomorphine, rats
[7] = buspirone co-injected animals (summary statement)
[8] = buspirone 1 mg/kg co-administered with apomorphine 1 mg/kg, rats

Row | Motor activities post repeated administration ([2]; apomorphine 1 mg/kg, repeated administration) | % psychosis like effects ([2]; apomorphine 1 mg/kg) | Post-conditioning values of time spent in the drug paired compartment ([4]; apomorphine 1 mg/kg, repeated, vs pre-conditioning/saline, rats) | % reinforcement ([4]; apomorphine 1 mg/kg, rats) | Structure (SMILES) | Exploratory activity in open field ([1]; apomorphine alone) | Motor activities post single administration ([2]; apomorphine 1 mg/kg, single administration) | Memory consolidation (time taken to reach platform) ([3]; apomorphine vs saline treated animals, 60 min post training, rats) | Memory retention (time taken to reach platform) ([3]; apomorphine vs saline treated animals, 24 hr post training, rats) | Learning acquisition (time taken to reach platform) ([3]; apomorphine vs saline treated animals, tested immediately after training, rats) | Effect on apomorphine-increased exploratory activity ([1]; buspirone 1 mg/kg, after 6th apomorphine injection) | Effect on % psychosis like effects produced by apomorphine [2, 5] | Effect on apomorphine-increased motor activities post repeated administration [2, 5] | Effect on apomorphine-increased learning acquisition [3, 6] | Effect on apomorphine-increased memory consolidation [3, 6] | Effect on apomorphine-increased memory retention [3, 6] | Memory enhancing effects of apomorphine [3, 7] | Effect on apomorphine-induced increases in post conditioning values of time spent in drug paired compartment [4, 8] | Reinforcement effects of apomorphine [4, 8] | Addiction to apomorphine [4, 7]
1 | increased | produced | much higher | increased | CN1CCc2cccc3c2[C@H]1Cc1ccc(O)c(O)c1-3 [apomorphine] | increased | increase | increase | increase | increase | – | – | – | – | – | – | – | – | – | –
2 | – | – | – | – | O=C1CC2(CCCC2)CC(=O)N1CCCCN1CCN(c2ncccn2)CC1 [buspirone] | – | – | – | – | – | attenuated | attenuated | attenuated | further potentiated | further potentiated | further potentiated | potentiated | significantly attenuates | did not occur | reduced
